Data reported in US6506772B1, “Substituted [1,2,4]triazolo[1,5a]pyridine derivatives with activity as adenosine receptor ligands” (Hoffmann-La Roche Inc., priority 2000, dated 2003).

What was measured:
[1] = biological target: T1, HA1 adenosine receptor (Homo sapiens, UniProt P30542); experiment: Human adenosine A1 receptor affinity (Ki hA1); format: binding; settings: affinity to human adenosine A1 receptor
T1 sequence (P30542 1-326): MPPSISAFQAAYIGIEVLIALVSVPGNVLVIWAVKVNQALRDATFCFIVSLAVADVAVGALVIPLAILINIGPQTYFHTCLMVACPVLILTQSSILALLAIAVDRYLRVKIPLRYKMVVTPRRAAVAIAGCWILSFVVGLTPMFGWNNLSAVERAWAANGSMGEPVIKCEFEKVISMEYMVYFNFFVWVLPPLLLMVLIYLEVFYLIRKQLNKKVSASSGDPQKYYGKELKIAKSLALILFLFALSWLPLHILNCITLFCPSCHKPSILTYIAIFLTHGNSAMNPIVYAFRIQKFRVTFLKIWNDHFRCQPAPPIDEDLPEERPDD

[2] = biological target: T2, human adenosine A2A receptor (Homo sapiens, UniProt P29274); experiment: Human adenosine A2A receptor [3H]-SCH-58261 binding assay; settings: for Ki: affinity to human adenosine A2A receptor, read-out: Ki HA2A; for selectivity (A1/A2a): calculated ratio of the affinity to the HA1 receptor to the HA2a receptor
T2 construct: expressed in transfected cells; host or cells: CHO cells, Semliki Forest virus expression system; membrane preparation
T2 sequence (P29274 whole entry): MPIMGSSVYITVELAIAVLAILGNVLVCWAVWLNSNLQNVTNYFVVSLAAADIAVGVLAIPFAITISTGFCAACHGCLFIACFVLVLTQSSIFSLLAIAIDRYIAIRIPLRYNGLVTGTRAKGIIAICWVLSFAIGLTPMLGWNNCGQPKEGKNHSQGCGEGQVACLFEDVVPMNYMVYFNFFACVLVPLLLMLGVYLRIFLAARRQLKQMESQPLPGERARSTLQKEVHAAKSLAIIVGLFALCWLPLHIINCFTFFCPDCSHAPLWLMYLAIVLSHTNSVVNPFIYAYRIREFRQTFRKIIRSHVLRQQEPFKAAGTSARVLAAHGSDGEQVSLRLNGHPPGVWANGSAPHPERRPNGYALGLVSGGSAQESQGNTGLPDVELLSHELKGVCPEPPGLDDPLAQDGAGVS

With `COc1ccccc1CNC(=O)c1cc(N)n2nc(-c3ccc(C)o3)nc2c1` [Example 214, 5-Amino-2-(5-methyl-furan-2-yl)-[1,2,4]triazolo[1,5-a]pyridine-7-carboxylic acid 2-methoxy-benzylamide] the Ki [1] was 111 nM, the Ki [2] was 14.6 nM and the “selectivity (A1/A2a)” value [2] was 7.6.

`COc1ccc(CNC(=O)c2cc(N)n3nc(-c4ccc(C)o4)nc3c2)cc1` [Example 215, 5-Amino-2-(5-methyl-furan-2-yl)-[1,2,4]triazolo[1,5-a]pyridine-7-carboxylic acid 4-methoxy-benzylamide] was tested, and the Ki [1] was 1540 nM, the Ki [2] was 295 nM and the “selectivity (A1/A2a)” value [2] was 5.2.

In the case of `Nc1cc(C(=O)NCc2ccccc2)cc2nc(-c3ccccc3)nn12` [Example 216, 5-Amino-2-phenyl-[1,2,4]triazolo[1,5-a]pyridine-7-carboxylic acid benzylamide], the Ki [1] is reported as 149 nM, the Ki [2] is reported as 64.1 nM and the “selectivity (A1/A2a)” value [2] is reported as 2.3.

With `CC(NC(=O)c1cc(N)n2nc(-c3ccccc3)nc2c1)c1ccccc1` (stereo not drawn) [Example 217, 5-Amino-2-phenyl-[1,2,4]triazolo[1,5-a]pyridine-7-carboxylic acid (1-phenyl-ethyl)-amide] the Ki [1] was 72.6 nM, the Ki [2] was 84.6 nM and the “selectivity (A1/A2a)” value [2] was 0.9.

`Nc1cc(C(=O)NCc2ccccc2Cl)cc2nc(-c3ccccc3)nn12` [Example 218, 5-Amino-2-phenyl-[1,2,4]triazolo[1,5-a]pyridine-7-carboxylic acid 2-chloro-benzylamide] was tested, and the Ki [1] was 116 nM, the Ki [2] was 47.2 nM and the “selectivity (A1/A2a)” value [2] was 2.5.

In the case of `Nc1cc(C(=O)NCc2ccccc2Br)cc2nc(-c3ccccc3)nn12` [Example 219, 5-Amino-2-phenyl-[1,2,4]triazolo[1,5-a]pyridine-7-carboxylic acid 2-bromo-benzylamide], the Ki [1] is reported as 133 nM, the Ki [2] is reported as 30 nM and the “selectivity (A1/A2a)” value [2] is reported as 4.4.

For `COc1ccccc1CNC(=O)c1cc(N)n2nc(-c3ccccc3)nc2c1` [Example 220, 5-Amino-2-phenyl-[1,2,4]triazolo[1,5-a]pyridine-7-carboxylic acid 2-methoxy-benzylamide], the Ki [1] was 48.3 nM, the Ki [2] was 29.2 nM and the “selectivity (A1/A2a)” value [2] was 1.7.

`CCN(C(=O)c1cc(N)n2nc(-c3ccoc3)nc2c1)C(C)C` [Example 221, 5-Amino-2-furan-3-yl-[1,2,4]triazolo[1,5-a]pyridine-7-carboxylic acid ethyl-isopropyl-amide] was tested, and the Ki [1] was 2260 nM, the Ki [2] was 308 nM and the “selectivity (A1/A2a)” value [2] was 7.3.

For `CN(C(=O)c1cc(N)n2nc(-c3ccoc3)nc2c1)C1CCCCC1` [Example 222, 5-Amino-2-furan-3-yl-[1,2,4]triazolo[1,5-a]pyridine-7-carboxylic acid cyclohexyl-methyl-amide], the Ki [1] was 2050 nM, the Ki [2] was 241 nM and the “selectivity (A1/A2a)” value [2] was 8.5.

In the case of `Nc1cc(C(=O)NC2CCc3ccccc32)cc2nc(-c3ccoc3)nn12` (stereo not drawn) [Example 223, 5-Amino-2-furan-3-yl-[1,2,4]triazolo[1,5-a]pyridine-7-carboxylic acid indan-1-ylamide], the Ki [1] is reported as 414 nM, the Ki [2] is reported as 44.1 nM and the “selectivity (A1/A2a)” value [2] is reported as 9.4.

With `Nc1cc(C(=O)NCc2ccccc2)cc2nc(-c3ccoc3)nn12` [Example 224, 5-Amino-2-furan-3-yl-[1,2,4]triazolo[1,5-a]pyridine-7-carboxylic acid benzylamide] the Ki [1] was 216 nM, the Ki [2] was 47.4 nM and the “selectivity (A1/A2a)” value [2] was 4.5.

In the case of `CC(NC(=O)c1cc(N)n2nc(-c3ccoc3)nc2c1)c1ccccc1` (stereo not drawn) [Example 225, 5-Amino-2-furan-3-yl-[1,2,4]triazolo[1,5-a]pyridine-7-carboxylic acid (1-phenyl-ethyl)-amide], the Ki [1] is reported as 125 nM, the Ki [2] is reported as 103 nM and the “selectivity (A1/A2a)” value [2] is reported as 1.2.

For `CN(Cc1ccccc1)C(=O)c1cc(N)n2nc(-c3ccoc3)nc2c1` [Example 226, 5-Amino-2-furan-3-yl-[1,2,4]triazolo[1,5-a]pyridine-7-carboxylic acid benzyl-methyl-amide], the Ki [1] was 1010 nM, the Ki [2] was 121 nM and the “selectivity (A1/A2a)” value [2] was 8.4.

In the case of `Nc1cc(C(=O)NCc2ccc(F)cc2)cc2nc(-c3ccoc3)nn12` [Example 227, 5-Amino-2-furan-3-yl-[1,2,4]triazolo[1,5-a]pyridine-7-carboxylic acid 4-fluoro-benzylamide], the Ki [1] is reported as 736 nM, the Ki [2] is reported as 192 nM and the “selectivity (A1/A2a)” value [2] is reported as 3.8.

For `COc1ccccc1CNC(=O)c1cc(N)n2nc(-c3ccoc3)nc2c1` [Example 228, 5-Amino-2-furan-3-yl-[1,2,4]triazolo[1,5-a]pyridine-7-carboxylic acid 2-methoxy-benzylamide], the Ki [1] was 164 nM, the Ki [2] was 30.5 nM and the “selectivity (A1/A2a)” value [2] was 5.4.

In the case of `CCN(CC)C(=O)c1cc(N)n2nc(-c3ccc(Cl)o3)nc2c1` [Example 233, 5-Amino-2-(5-chloro-furan-2-yl)-[1,2,4]triazolo[1,5-a]pyridine-7-carboxylic acid diethylamide], the Ki [1] is reported as 280 nM, the Ki [2] is reported as 7.2 nM and the “selectivity (A1/A2a)” value [2] is reported as 38.7.

For `Nc1cc(C(=O)NC2CCCCC2)cc2nc(-c3ccc(Cl)o3)nn12` [Example 234, 5-Amino-2-(5-chloro-furan-2-yl)-[1,2,4]triazolo[1,5-a]pyridine-7-carboxylic acid cyclohexylamide], the Ki [1] was 455 nM, the Ki [2] was 69.5 nM and the “selectivity (A1/A2a)” value [2] was 6.6.

`Nc1cc(C(=O)N2CCCC2)cc2nc(-c3ccc(Cl)o3)nn12` [Example 235, [5-Amino-2-(5-chloro-furan-2-yl)-[1,2,4]triazolo[1,5-a]pyridin-7-yl]-pyrrolidin-1-yl-methanone] was tested, and the Ki [1] was 770 nM, the Ki [2] was 18.1 nM and the “selectivity (A1/A2a)” value [2] was 42.5.

`Nc1cc(C(=O)N2CCCCC2)cc2nc(-c3ccc(Cl)o3)nn12` [Example 236, [5-Amino-2-(5-chloro-furan-2-yl)-[1,2,4]triazolo[1,5-a]pyridin-7-yl]-piperidin-1-yl-methanone] was tested, and the Ki [1] was 325 nM, the Ki [2] was 9.2 nM and the “selectivity (A1/A2a)” value [2] was 35.2.

In the case of `Nc1cc(C(=O)N2CCOCC2)cc2nc(-c3ccc(Cl)o3)nn12` [Example 237, [5-Amino-2-(5-chloro-furan-2-yl)-[1,2,4]triazolo[1,5-a]pyridin-7-yl]-morpholin-4-yl-methanone], the Ki [1] is reported as 708 nM, the Ki [2] is reported as 52.3 nM and the “selectivity (A1/A2a)” value [2] is reported as 13.5.

With `Nc1cc(C(=O)NCc2ccccc2)cc2nc(-c3ccc(Cl)o3)nn12` [Example 238, 5-Amino-2-(5-chloro-furan-2-yl)-[1,2,4]triazolo[1,5-a]pyridine-7-carboxylic acid benzylamide] the Ki [1] was 94.3 nM, the Ki [2] was 40.4 nM and the “selectivity (A1/A2a)” value [2] was 2.3.

With `CC(C)N(Cc1ccccc1)C(=O)c1cc(N)n2nc(-c3ccc(Cl)o3)nc2c1` [Example 239, 5-Amino-2-(5-chloro-furan-2-yl)-[1,2,4]triazolo[1,5-a]pyridine-7-carboxylic acid benzyl-isopropyl-amide] the Ki [1] was 25.1 nM, the Ki [2] was 1.7 nM and the “selectivity (A1/A2a)” value [2] was 14.6.

For `CN(C(=O)c1cc(N)n2nc(-c3ccc(Cl)o3)nc2c1)C1CCCCC1` [Example 242, 5-Amino-2-(5-chloro-furan-2-yl)-[1,2,4]triazolo[1,5-a]pyridine-7-carboxylic acid cyclohexyl-methyl-amide], the Ki [1] was 124 nM, the Ki [2] was 6.5 nM and the “selectivity (A1/A2a)” value [2] was 19.0.
